Key:
SSTR2 promoter [1] = experiment: ChIP assay, histone acetylation at the SSTR2 promoter, AR42J cells; assay type: cell-based, rat; conditions: VAC 4mM, 72h, n=4, relative to control
SSTR2 promoter [2] = experiment: ChIP assay, histone acetylation at the SSTR2 promoter, FTC133 cells; assay type: cell-based, human; conditions: VAC 4mM, 72h
SSTR2 expression [3] = experiment: SSTR2 expression in AR42J cells after VAC; assay type: cell-based, rat; conditions: AR42J cell line; 2 mM or 4 mM for 72 h
SSTR2 promoter [4] = experiment: ChIP assay, histone acetylation at the SSTR2 promoter, BCPAP cells; assay type: cell-based, human; conditions: VAC 4mM, 72h, n=4, relative to control, p<0.001
[5] = system: subcutaneous and metastatic mice models; experiment: Effect of epigenetic pretreatment on uptake of SST analogs in mice models; assay type: in vivo; conditions: for effect on the uptake of ^86Y-DOTA-EB-TATE within the tumor and normal tissues in comparison with control mice: biodistribution, FTC133 and AR42J tumor-bearing mice
SSTR2 = experiment: IHC staining of SSTR2 in tumor tissues of treated mice; assay type: in vivo; conditions: FTC133 (p=0.023) and AR42J (p=0.016) models; VAC 300 µg/kg intraperitoneal daily for 10 days
FTC133 tumors = experiment: PRRT in FTC133; assay type: in vivo; conditions: FTC133 mice model; VAC 300 µg/kg intraperitoneal daily for 10 days
SSTR2 expression [6] = experiment: SSTR2 expression in thyroid cancer cells after epigenetic modifiers; assay type: cell-based, human
[7] = system: acetylated histone 3 and acetylated histone 4; experiment: Global histone acetylation; assay type: cell-based; conditions: FTC133, BCPAP, and AR42J cells; VAC 4mM, 72h, n=3
AR42J tumors = experiment: PRRT in AR42J; assay type: in vivo; conditions: AR42J mice model; VAC 300 µg/kg intraperitoneal daily for 10 days
examined cell lines = experiment: Growth inhibition / cell cycle after VAC treatment; assay type: cell-based; conditions: VAC treatment (Supplemental Figure 3)

| SMILES | increase in H3ac at the SSTR2 promoter (SSTR2 promoter [1]; p<0.001) [fold] | increase in H4ac at the SSTR2 promoter (SSTR2 promoter [1]; p<0.01) [fold] | increase in H4 acetylation at the SSTR2 promoter (SSTR2 promoter [2]; n=4, p<0.001) [fold] | H3 acetylation at the SSTR2 promoter (SSTR2 promoter [2]; n=4, p<0.05) | SSTR2 expression (SSTR2 expression [3]) | increase in H3ac at the SSTR2 promoter (SSTR2 promoter [4]) [fold] | increase in H4ac at the SSTR2 promoter (SSTR2 promoter [4]) [fold] | effect on the uptake of ^86Y-DOTA-EB-TATE within the tumor and normal tissues in comparison with control mice [5] | effect of VAC treatment on the uptake of the SST analogs ([5]; subcutaneous and metastatic mice models, VAC 300 µg/kg intraperitoneal daily for 10 days, PET) | SSTR2 expression in tumor tissues compared with placebo (IHC) (SSTR2) | effect of VAC pretreatment on the efficacy of ^177Lu-DOTA-EB-TATE (FTC133 tumors) | SSTR2 expression (SSTR2 expression [6]; FTC133, BCPAP and TT cells, 2 mM or 4 mM for 72 h) | induction of SSTR2 expression in comparison to TAC and DEC (SSTR2 expression [6]; thyroid cancer cells, 72h) | global histone acetylation at the protein level [7] | effect of VAC pretreatment on the efficacy of ^177Lu-DOTA-EB-TATE (AR42J tumors) | effect on cell growth (examined cell lines) | effect of decitabine treatment on the uptake of ^86Y-DOTA-EB-TATE ([5]; FTC133 and AR42J subcutaneous mice models, decitabine 1 mg/kg intraperitoneal daily for 10 days, PET scans) |
| --- | --- | --- | --- | --- | --- | --- | --- | --- | --- | --- | --- | --- | --- | --- | --- | --- | --- |
| CCCC(CCC)C(=O)O [VAC, valproic acid] | 2.8 | 2.7 | 2.4 | slightly, but significantly reduced | significantly upregulated | 1.9 | 2.9 | Neither VAC nor DEC treatment resulted in any significant difference | no significant effect | higher cytoplasmic SSTR2 expression | did not improve the efficacy | significantly upregulated | more potent inducer of SSTR2 expression | increase in H3ac and H4ac | did not improve the efficacy | growth inhibition by promoting cell cycle arrest |  |
| Nc1ncn([C@H]2C[C@H](O)[C@@H](CO)O2)c(=O)n1 [decitabine] |  |  |  |  |  |  |  | Neither VAC nor DEC treatment resulted in any significant difference |  |  |  |  |  |  |  |  | did not improve the uptake |

— publication PMC9531406 (Clinical cancer research : an official journal of the …, 2020)
